Data on one compound can be found in ChEMBL document CHEMBL3352169, “Fragment-based hit discovery and structure-based optimization of aminotriazoloquinazolines as novel Hsp90 inhibitors” (Bioorg Med Chem, 2014).

Data set [1] is described as follows: Permeability across apical to basolateral side in human Caco2 cells. Type of data set: ADME, cell-based. Particulars: Caco-2. (Caco-2 monolayers are a common model of the intestinal barrier.)
Data set [2] in a line: Intrinsic clearance in human liver microsomes. As to conditions: read-out: CLH. Type of data set: ADME. In general terms: Liver microsomes are a subcellular fraction often used to study metabolism.
A short description of data set [3]: Intrinsic clearance in rat liver microsomes. The data set is classed as ADME. As to conditions: read-out: CLH.
A short description of data set [4]: Clearance in mouse at 5 mg/kg, iv. Type of data set: ADME, organism-based. On the set-up: dose 5 mg/kg, route intravenous. As to conditions: in vivo.
Data set [5] in a line: Oral bioavailability in mouse at 5 mg/kg. Type of data set: ADME, organism-based. Particulars: in vivo.

Broadly, the Papp A→B is the apparent permeability from the apical to the basolateral side of a cell layer. One may read the clearance as a measure of how efficiently the substance is removed, as volume per time. Read a low clearance as inefficient removal. What is called bioavailability is dose-corrected exposure relative to a reference, in per cent. A high value points to much systemic uptake. On to `OCCCNc1ccc2c(c1)nc(-c1ccc3c(c1)OCO3)n1ncnc21`, for which the Papp A→B in data set [1] came to 65.4 ×10⁻⁶ cm/s. The values for the CLint scaled in data set [2] and in data set [3] were 29.2 mL/min/kg and 600 mL/min/kg, respectively. The compound also displayed a clearance in data set [4] of 132 mL/min/kg. The compound also showed a bioavailability in data set [5] of 1.5%.
